Measurements from patent US11912703B2, “6-azaindole compounds” (BRISTOL-MYERS SQUIBB COMPANY, priority 2017, dated 2024).
Like-named read-outs stand apart in the source and are kept apart here.

Columns and labels:
human TLR8 = human TLR8 (Homo sapiens (Human), UniProt Q9NR97); test: TLR8 inhibition reporter assay (HEK-Blue SEAP);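 note: SEAP driven by IFN-β minimal promoter with five NF-κB and AP-1 sites, compounds tested 0.05 nM to 50 µM, 22 h incubation, inhibition relative to agonist plus DMSO wells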
human TLR8, sequence (Q9NR97 27-1041): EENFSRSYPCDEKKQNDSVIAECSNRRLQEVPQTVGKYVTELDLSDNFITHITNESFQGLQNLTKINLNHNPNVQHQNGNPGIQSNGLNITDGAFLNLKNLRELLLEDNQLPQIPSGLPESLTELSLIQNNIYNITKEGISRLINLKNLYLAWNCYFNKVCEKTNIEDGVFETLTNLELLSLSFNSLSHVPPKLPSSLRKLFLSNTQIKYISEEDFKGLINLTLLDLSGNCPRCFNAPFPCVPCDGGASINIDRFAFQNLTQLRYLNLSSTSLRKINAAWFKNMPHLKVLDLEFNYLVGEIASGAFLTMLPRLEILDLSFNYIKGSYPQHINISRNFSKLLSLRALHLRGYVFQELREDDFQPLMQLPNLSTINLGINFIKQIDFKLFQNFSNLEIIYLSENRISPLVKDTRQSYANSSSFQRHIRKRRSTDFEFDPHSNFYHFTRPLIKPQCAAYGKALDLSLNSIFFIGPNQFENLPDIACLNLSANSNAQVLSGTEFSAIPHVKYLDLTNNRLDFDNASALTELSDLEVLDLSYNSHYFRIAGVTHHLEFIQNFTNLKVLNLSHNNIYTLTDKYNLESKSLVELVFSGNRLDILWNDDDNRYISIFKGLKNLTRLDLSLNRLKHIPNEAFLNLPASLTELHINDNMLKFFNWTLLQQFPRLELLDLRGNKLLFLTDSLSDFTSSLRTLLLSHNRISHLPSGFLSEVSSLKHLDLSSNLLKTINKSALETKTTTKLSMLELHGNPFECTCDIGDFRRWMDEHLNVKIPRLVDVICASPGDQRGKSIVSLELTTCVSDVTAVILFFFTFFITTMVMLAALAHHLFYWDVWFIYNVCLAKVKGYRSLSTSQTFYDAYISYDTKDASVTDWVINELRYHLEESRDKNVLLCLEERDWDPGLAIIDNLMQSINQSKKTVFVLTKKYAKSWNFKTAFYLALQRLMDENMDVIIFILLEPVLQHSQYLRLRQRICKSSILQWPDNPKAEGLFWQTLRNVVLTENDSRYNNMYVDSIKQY

human TLR7 = human TLR7 (Homo sapiens (Human), UniProt Q9NYK1); test: TLR7 inhibition reporter assay (HEK-Blue SEAP); assay type: cell-based; conditions: HEK-Blue cells overexpressing human TLR7, gardiquimod 7.5 μM stimulation
human TLR7, sequence (Q9NYK1 27-1049): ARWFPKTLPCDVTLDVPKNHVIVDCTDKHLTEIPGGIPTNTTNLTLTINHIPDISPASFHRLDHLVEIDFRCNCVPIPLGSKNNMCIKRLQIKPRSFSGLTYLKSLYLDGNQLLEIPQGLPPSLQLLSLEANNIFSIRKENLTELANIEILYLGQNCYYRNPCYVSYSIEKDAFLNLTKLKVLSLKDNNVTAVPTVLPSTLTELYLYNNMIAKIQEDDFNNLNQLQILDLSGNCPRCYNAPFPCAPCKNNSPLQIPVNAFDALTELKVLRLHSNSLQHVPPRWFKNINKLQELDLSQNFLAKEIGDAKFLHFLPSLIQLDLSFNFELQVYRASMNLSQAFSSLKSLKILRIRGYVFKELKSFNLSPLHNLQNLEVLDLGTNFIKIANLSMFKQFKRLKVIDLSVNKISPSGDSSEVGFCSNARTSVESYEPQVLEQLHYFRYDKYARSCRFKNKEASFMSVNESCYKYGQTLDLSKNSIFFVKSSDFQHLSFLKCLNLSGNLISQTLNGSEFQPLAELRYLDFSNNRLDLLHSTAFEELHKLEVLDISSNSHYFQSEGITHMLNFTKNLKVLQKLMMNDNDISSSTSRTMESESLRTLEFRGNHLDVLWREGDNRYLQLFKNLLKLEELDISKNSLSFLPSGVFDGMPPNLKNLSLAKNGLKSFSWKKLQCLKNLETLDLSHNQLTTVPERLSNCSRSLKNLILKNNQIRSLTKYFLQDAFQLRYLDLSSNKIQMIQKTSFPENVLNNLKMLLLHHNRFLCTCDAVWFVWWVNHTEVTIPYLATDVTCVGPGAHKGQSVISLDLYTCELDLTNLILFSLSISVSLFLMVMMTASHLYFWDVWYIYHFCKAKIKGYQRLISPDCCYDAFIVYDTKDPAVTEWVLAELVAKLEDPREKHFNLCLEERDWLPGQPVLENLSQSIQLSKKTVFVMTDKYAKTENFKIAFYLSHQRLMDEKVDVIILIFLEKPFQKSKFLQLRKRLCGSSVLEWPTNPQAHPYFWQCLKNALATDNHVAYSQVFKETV

human TLR9 = human TLR9 (Homo sapiens (Human), UniProt Q9NR96); test: TLR9 inhibition reporter assay (HEK-Blue SEAP);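 note: SEAP driven by IFN-β minimal promoter carrying five NF-κB and AP-1 sites, 22 h at 37 °C, compounds 0.05 nM–50 µM, inhibition scaled between agonist-plus-DMSO and reference-inhibitor wells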
human TLR9, sequence (Q9NR96 26-1032): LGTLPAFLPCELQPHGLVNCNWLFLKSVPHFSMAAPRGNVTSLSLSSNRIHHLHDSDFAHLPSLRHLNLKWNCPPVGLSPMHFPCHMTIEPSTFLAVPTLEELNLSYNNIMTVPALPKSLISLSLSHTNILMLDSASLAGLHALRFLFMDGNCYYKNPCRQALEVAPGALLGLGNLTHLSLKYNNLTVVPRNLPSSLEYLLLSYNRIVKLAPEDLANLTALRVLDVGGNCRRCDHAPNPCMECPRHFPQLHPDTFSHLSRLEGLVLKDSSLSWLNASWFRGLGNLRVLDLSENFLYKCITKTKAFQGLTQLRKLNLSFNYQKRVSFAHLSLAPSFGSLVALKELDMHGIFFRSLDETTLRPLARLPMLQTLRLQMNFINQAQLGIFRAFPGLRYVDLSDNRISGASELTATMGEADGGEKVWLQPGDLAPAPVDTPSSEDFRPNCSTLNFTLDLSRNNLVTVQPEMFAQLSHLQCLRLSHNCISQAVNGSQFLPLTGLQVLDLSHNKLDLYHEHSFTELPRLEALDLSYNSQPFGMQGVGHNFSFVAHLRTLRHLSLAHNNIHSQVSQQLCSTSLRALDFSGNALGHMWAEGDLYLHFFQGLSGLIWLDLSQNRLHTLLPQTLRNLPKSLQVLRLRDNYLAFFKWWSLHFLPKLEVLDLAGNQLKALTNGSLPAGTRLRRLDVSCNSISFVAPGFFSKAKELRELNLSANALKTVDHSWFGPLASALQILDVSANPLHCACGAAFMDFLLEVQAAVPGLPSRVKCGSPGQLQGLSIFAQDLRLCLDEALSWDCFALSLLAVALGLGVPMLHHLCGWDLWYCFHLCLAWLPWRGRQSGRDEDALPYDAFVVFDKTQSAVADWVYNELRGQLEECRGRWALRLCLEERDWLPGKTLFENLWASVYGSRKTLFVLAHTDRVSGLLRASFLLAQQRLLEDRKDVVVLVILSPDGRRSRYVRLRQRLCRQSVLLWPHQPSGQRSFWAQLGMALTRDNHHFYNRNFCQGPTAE

[1] = read-out: TLR8 IC50; HEK-Blue cells overexpressing human TLR8, R848 15.9 μM stimulation, SEAP reporter
[2] = read-out: TLR9 IC50; HEK-Blue cells overexpressing human TLR9, ODN2006 5 nM stimulation, SEAP reporter
[3] = read-out: TLR8 IC50; HEK-Blue cells overexpressing human TLR8; R848 15.9 μM stimulation; SEAP reporter
[4] = read-out: TLR9 IC50; HEK-Blue cells overexpressing human TLR9; ODN2006 5 nM stimulation; SEAP reporter

Compound | IC50 (human TLR8; [1]) | IC50 (human TLR7) | IC50 (human TLR9; [2]) | IC50 (human TLR8; [3]) | IC50 (human TLR9; [4])
COc1cc(-c2[nH]c3cnc(N4CC5(C4)CN(C4CCC4)C5)c(F)c3c2C(C)C)cn2ncnc12 [Example 381] | 11 nM | 9.9 nM | 2580 nM |  | 
CNCCN1CCC(c2cc3c(C)c(-c4ccc(OC)c(OC)c4)[nH]c3cn2)CC1 [Example 8] | 15900 nM | 6640 nM | 258 nM |  | 
CNC(=O)CN1CC2(C1)CN(c1ncc3[nH]c(-c4cn5ncnc5c(C)c4C)c(C(C)C)c3c1F)C2 [Example 395, 2-(6-(2-(7,8-dimethyl-[1,2,4]triazolo[1,5-a]pyridin-6-yl)-4-fluoro-3-isopropyl-1H-pyrrolo[2,3-c]pyridin-5-yl)-2,6-diazaspiro[3.3]heptan-2-yl)-N-methylacetamide] | 6.6 nM | 44 nM | 17500 nM |  | 
Cc1c(-c2[nH]c3cnc(C4CCN(CC(=O)N(C)C)CC4)cc3c2C(C)C)cn2ncnc2c1C [Example 31] | 6.2 nM | 2.1 nM | 132 nM |  | 
Cc1cc(-c2[nH]c3cnc(C4CCC(NCC(C)(C)O)CC4)c(F)c3c2C(C)C)cn2ncnc12 (centres unmarked) [Example 164] | 4.6 nM | 6.2 nM | 1800 nM |  | 
Cc1c(N2CCC(NC(C)C)CC2)ncc2[nH]c(-c3cc(C)c4ncnn4c3)c(C(C)C)c12 [Example 236] | 1.1 nM | 0.66 nM | 939 nM | 1.1 nM | 939 nM
COc1cc(-c2[nH]c3cnc(C4CCC(NCC5(C)COC5)CC4)c(F)c3c2C(C)C)cn2ncnc12 (centres unmarked) [Example 225] |  | 4 nM |  | 1.4 nM | 4700 nM
Cc1c(N2CCC(N3CCN(S(C)(=O)=O)CC3)CC2)ncc2[nH]c(-c3cc(C)c4ncnn4c3)c(C(C)C)c12 [Example 285] | 1.6 nM | 1.3 nM | 1870 nM |  | 
COc1cc(-c2[nH]c3cnc(N4CC5(CN(CCS(C)(=O)=O)C5)C4)c(F)c3c2C(C)C)cn2ncnc12 [Example 357] | 10 nM | 21 nM | 37400 nM |  | 
CNCC(=O)N1CCC(c2ncc3[nH]c(-c4cc(OC)c5ncnn5c4)c(C(C)C)c3c2C)CC1 [Example 12] | 273 nM | 53 nM | 866 nM |  | 
Cc1c(N2CCC(N3CCOCC3)CC2)ncc2[nH]c(-c3cc(C)c4ncnn4c3)c(C(C)C)c12 [Example 282] | 0.97 nM | 1.1 nM | 1070 nM |  | 
COc1cc(-c2[nH]c3cnc(N4CCC(NC5CCOC5)CC4)c(F)c3c2C(C)C)cn2ncnc12 (centres unmarked) [Example 103] | 0.48 nM | 0.86 nM | 5920 nM |  | 
Cc1cc(-c2[nH]c3cnc(C4CCN(C(C)C)CC4)c(F)c3c2C(C)C)cn2ncnc12 [Example 212] | 3.8 nM | 1.6 nM | 2080 nM |  | 
Cc1c(-c2[nH]c3cnc(N4CCC(NCC(C)(C)C)CC4)c(F)c3c2C(C)C)cn2ncnc2c1C [Example 167] | 0.49 nM | 2.6 nM | 4330 nM |  | 
Cc1c(-c2[nH]c3cnc(N4CC5(CN(CC6CCC6)C5)C4)c(F)c3c2C(C)C)cn2ncnc2c1C [Example 404] | 4 nM | 32 nM | 5810 nM |  | 
CCN1CC2(C1)CN(c1ncc3[nH]c(-c4cc(OC)c5ncnn5c4)c(C(C)C)c3c1F)C2 [Example 379] | 2.3 nM | 4 nM | 3630 nM |  | 
Cc1c(-c2[nH]c3cnc(C4CCN(C(C)C)CC4)cc3c2C(C)C)cn2ncnc2c1C [Example 35] | 2.8 nM | 1.7 nM | 154 nM |  | 
Cc1c(-c2[nH]c3cnc(C4CCN(CC(=O)N(C)C)CC4)c(F)c3c2C(C)C)cn2ncnc2c1C [Example 22] | 1.8 nM | 6.2 nM |  |  | 
COc1cc(-c2[nH]c3cnc(N4CCN(C(C)C)CC4)c(F)c3c2C(C)C)cn2ncnc12 [Example 384] | 0.55 nM | 0.96 nM | 3260 nM |  | 
Cc1cc(-c2[nH]c3cnc(C4CCN(CC(N)=O)CC4)c(F)c3c2C(C)C)cn2ncnc12 [Example 125] | 6.5 nM | 3.1 nM | 7030 nM |  | 
COc1cc(-c2[nH]c3cnc(C4CCC(NCC(C)(C)C)CC4)cc3c2C(C)C)cn2ncnc12 (centres unmarked) [Example 310] | 32 nM | 13 nM | 640 nM |  | 
COc1cc(-c2[nH]c3cnc(C4CCC(NCC(C)(C)OC)C4)cc3c2C(C)C)cn2ncnc12 (centres unmarked) [Example 96] | 7.7 nM | 24 nM | 294 nM |  | 
CNC(=O)CN1CCC(c2ncc3[nH]c(-c4cc(OC)c5ncnn5c4)c(C(C)C)c3c2C)CC1 [Example 2, 2-(4-(3-isopropyl-2-(8-methoxy-[1,2,4]triazolo[1,5-a]pyridin-6-yl)-4-methyl-1H-pyrrolo[2,3-c]pyridin-5-yl)piperidin-1-yl)-N-methylacetamide] | 14 nM | 1.6 nM | 398 nM |  | 
COCCN1CCN(c2ncc3[nH]c(-c4cn5ncnc5c(C)c4C)c(C(C)C)c3c2F)[C@H](C)C1 [Example 472] |  | 5.3 nM |  | 0.92 nM | 46600 nM
Cc1cc(-c2[nH]c3cnc(N4CCC(NCC5(C)COC5)CC4)c(F)c3c2C(C)C)cn2ncnc12 [Example 129] | 0.15 nM | 0.75 nM | 5900 nM |  | 

Compound | IC50 (human TLR8; [1]) | IC50 (human TLR7) | IC50 (human TLR9; [2]) | IC50 (human TLR8; [3]) | IC50 (human TLR9; [4])
CCN1CCN(c2ncc3[nH]c(-c4cc(OC)c5ncnn5c4)c(C(C)C)c3c2F)CC1 [Example 389] | 0.38 nM | 1.1 nM | 6160 nM |  | 
COc1cc(-c2[nH]c3cnc(N4CCN(CC(=O)N(C)C)CC4)cc3c2C(C)C)cn2ncnc12 [Example 300] | 1.6 nM | 13 nM | 11900 nM |  | 
Cc1c(-c2[nH]c3cnc(C4CCC(NCC5(C)COC5)CC4)c(F)c3c2C(C)C)cn2ncnc2c1C (centres unmarked) [Example 171] | 0.12 nM | 0.43 nM | 1960 nM |  | 
COc1cc(-c2[nH]c3cnc(N4CCN(C)C[C@H]4C)c(F)c3c2C(C)C)cn2ncnc12 [Example 436] | 5.1 nM | 1.8 nM | 10300 nM |  | 
COc1cc(-c2[nH]c3cnc(C4CCC(NC5CCOCC5)CC4)c(C)c3c2C(C)C)cn2ncnc12 (centres unmarked) [Example 241] | 11 nM | 3.5 nM | 285 nM |  | 
Cc1c(-c2[nH]c3cnc(N4CCN(CC(N)=O)C[C@H]4C)c(F)c3c2C(C)C)cn2ncnc2c1C [Example 464] |  | 7.3 nM |  | 2.6 nM | 44000 nM
COc1cc(-c2[nH]c3cnc(C4CCC(N(C)C(C)C)C4)cc3c2C(C)C)cn2ncnc12 (centres unmarked) [Example 145] |  |  | 506 nM |  | 
COc1cc(-c2[nH]c3cnc(C4CCC(N5CC(OC)C5)CC4)c(C)c3c2C(C)C)cn2ncnc12 (centres unmarked) [Example 62] | 21 nM |  | 417 nM |  | 
COc1cc(-c2[nH]c3cnc(C4CCC(NC5CCOCC5)CC4)c(F)c3c2C(C)C)cn2ncnc12 (centres unmarked) [Example 194] |  |  | 575 nM |  | 
COc1cc(-c2[nH]c3cnc(C4CCC(N5CC(OC)C5)CC4)c(C)c3c2C(C)C)cn2ncnc12 (centres unmarked) [Example 180] | 9.6 nM |  | 664 nM |  | 
Cc1cc(-c2[nH]c3cnc(C4CCNCC4)cc3c2C(C)C)cn2ncnc12 [Example 4, 6-(3-isopropyl-5-(piperidin-4-yl)-1h-pyrrolo[2,3-c]pyridin-2-yl)-8-methyl-[1,2,4]triazolo [1,5-a]pyridine] | 973 nM |  | 13100 nM |  | 
COc1cc(-c2[nH]c3cnc(N4CCN(CC(=O)N5CCOCC5)CC4)c(F)c3c2C(C)C)cn2ncnc12 [Example 363] | 3.7 nM |  | 43700 nM |  | 
COc1cc(-c2[nH]c3cnc(C4CCC(NCC(C)(C)OC)CC4)c(C)c3c2C(C)C)cn2ncnc12 (centres unmarked) [Example 207] | 7.7 nM |  | 437 nM |  | 
COc1cc(-c2[nH]c3cnc(C4CCC(NCC(C)(C)O)CC4)c(F)c3c2C(C)C)cn2ncnc12 (centres unmarked) [Example 195] | 3 nM |  | 577 nM |  | 
COc1cc(-c2[nH]c3cnc(C4CCC(N(C)C(C)C)C4)cc3c2C(C)C)cn2ncnc12 (centres unmarked) [Example 63] |  |  | 2990 nM |  | 
Cc1cc(-c2[nH]c3cnc(N4CCC(N(C)C(C)C)CC4)c(F)c3c2C(C)C)cn2ncnc12 [Example 68] |  |  | 5290 nM |  | 
COc1cc(-c2[nH]c3cnc(C4CCC(NCC(C)(C)OC)CC4)c(C)c3c2C(C)C)cn2ncnc12 (centres unmarked) [Example 206] | 13 nM |  | 260 nM |  | 
COc1cc(-c2[nH]c3cnc(C4CCC(NCC(C)(C)O)CC4)c(F)c3c2C(C)C)cn2ncnc12 (centres unmarked) [Example 74] | 0.77 nM |  | 694 nM |  | 
COc1cc(-c2[nH]c3cnc(C4CCC(NC5(C)COC5)CC4)c(F)c3c2C(C)C)cn2ncnc12 (centres unmarked) [Example 105] | 0.59 nM |  | 2250 nM |  | 
COc1cc(-c2[nH]c3cnc(C4CCC(NC5(C)COC5)CC4)c(F)c3c2C(C)C)cn2ncnc12 (centres unmarked) [Example 192] | 3.9 nM |  | 3140 nM |  | 
COc1cc(-c2[nH]c3cnc(N4CCN(CCS(C)(=O)=O)CC4)c(F)c3c2C(C)C)cn2ncnc12 [Example 362] | 4 nM | 4.9 nM |  |  | 
COc1cc(-c2[nH]c3cnc(C4CCC(NC5CCOCC5)CC4)c(F)c3c2C(C)C)cn2ncnc12 (centres unmarked) [Example 160] |  |  | 1280 nM |  | 
COc1cc(-c2[nH]c3cnc(C4CCC(N5CCC5)CC4)c(F)c3c2C(C)C)cn2ncnc12 (centres unmarked) [Example 46] | 1.6 nM | 0.98 nM |  |  | 
COc1cc(-c2[nH]c3cnc(N4CCC(N(C)CC(C)(C)C)CC4)c(F)c3c2C(C)C)cn2ncnc12 [Example 47] | 1.5 nM |  | 2580 nM |  | 
